This note sets out measurements from patent publication US11596632B2, “JAK1 pathway inhibitors for the treatment of gastrointestinal disease” (Incyte Corporation, priority 2018, dated 2023).

Like-named read-outs stand apart in the source and are kept apart here.

The subject of series [1] is IL-6 stimulated phosphorylated STAT3 in whole blood. Briefly: IL-6 stimulated STAT3 phosphorylation in whole blood. The class given is cell-based. The following applies: Homo sapiens, IL-6 stimulated pSTAT3, read-out: ex vivo whole blood IC50. As for the experimental part: To assess the inhibitory activity of Compound 1 in serum-rich media, e.g., plasma or whole blood, the assay is conducted using whole blood; briefly, the whole blood sample is stimulated with IL-6 and levels of phosphorylated STAT3 are determined. This assay can be conducted either in vitro (human blood samples are spiked with Compound 1) or ex vivo (whole blood samples collected from human subjects dosed with Compound 1).

Series [2] in a line: Plasma pharmacokinetics after single oral sustained release dose. The class given is in vivo, human. As for the experimental part:
The method used for analyzing Compound 1 in human plasma has been validated. Briefly, 50 μL of human plasma sample is placed in a 96-well plate. After an aliquot of 50 μL of internal standard (dissolved in 50:50 acetonitrile:water) is added, an aliquot of 100 μL of 0.1 M NaHCO3 is added. Then 800 μL of methyl-t-butyl ether (MtBE) is added and the samples are covered and vortexed. After centrifugation, 700 μL of MtBE layer is transferred to a clean 96-well plate. The samples are then dried under nitrogen at approximately 50° C. An aliquot of 250 μL of reconstitution solution (acetonitrile:water, 50:50, v/v) is then added to each sample. The plate is placed in the autosampler tray and injected into an LC-MS/MS for analysis. The LC-MS/MS analysis is carried out with an AB Sciex 4000 or a Sciex 6500 QTRAP mass spectrometer coupled with an HPLC pump and an autosampler. The chromatographic separation is achieved on a Waters T3 (50 mm×2.1 mm) HPLC column, with isocratic elution. The mass spectrometer is operated in positive ESI mode. The multiple reaction monitoring (MRM) transition is m/z 554.1→186.0 for Compound 1 and m/z 558.1→190.0 for the internal standard. Peak-area integrations are performed using the Analyst software and concentrations are calculated in Watson LIMS. Concentrations are calculated using 10 concentration levels ranging from 5 nM to 5000 nM with weighted linear regression, according to the following formula: y=ax+b(weighting factor=1/x^2) • where: x=Compound 1 concentration in nM; y=Peak-area ratio; a=Slope; and b=Intercept.
The lower limit of quantitation is 5 nM and the calibration curve ranges from 5 nM to 5000 nM for Compound 1 in human plasma.
(§1) Methods: Compound 1 concentrations in plasma and feces (colonic surrogate) were determined following a single sustained release 25 mg oral dose (see, e.g., Example B, 25 mg SR composition). Compound 1 concentrations in plasma following a single 100 mg dose were also determined in a separate study (see, e.g., Example C for measuring concentrations of Compound 1 in plasma). Ex vivo study: Colon tissue samples from healthy and UC subjects (2/group) were mounted on a vertical Ussing diffusion chamber. [^14C]Compound 1 was applied to the apical side of the chamber at 100 and 1000 nM and incubated for 1 h. Samples were collected from the donor and receiver sides for determination of Compound 1 concentration. The colonic tissue was snap frozen for quantitative autoradiography.
Standard noncompartmental pharmacokinetic methods were used to analyze Compound 1 plasma concentrations. The Cmax (maximum plasma concentration) and Tmax (time at which the maximum plasma concentration occurs) were taken directly from the observed plasma concentration data. The terminal-phase disposition rate constant (λZ) was estimated using a log-linear regression of the concentration data in the terminal disposition phase, and t1/2 was estimated as ln(2)/λZ. AUCall is defined as the area under the plasma concentration-time curve from time 0 to the last observation calculated using the linear trapezoidal rule for increasing concentrations and logarithmic trapezoidal rule for decreasing concentrations. AUC0-inf was calculated as AUC0-t+Ct/λZ, where by AUC0-t is defined as the area under the plasma concentration-time curve from time 0 to the last measureable concentration (also calculated using the linear-up/log-down trapezoidal rule) and Ct is the last measurable concentration. Cl/F is the apparent clearance and is calculated as Dose/AUC0-inf. Vz/F is the apparent volume of distribution based on the terminal phase calculated as Dose/(λZ*AUC0-inf).

Series [3] is described as follows: Ex vivo colon permeation study (Ussing diffusion chamber / tube), LSC. The class given is in vitro ADME, human. The conditions noted are these: healthy and UC colon, 100 and 1000 nM, 1 h; LLOQ 2 times background (21 dpm). The method, then:
as §1
A small piece of two colon samples from two healthy and UC subjects (total eight samples) were provided by Analytical Biological Services Inc. (Wilmington, Del.) and stored at −70° C. until use.
Dose formulations, i.e., 100 nM and 1000 nM, were prepared on the day of the experiment for all tissues in the study. [^14C]Compound 1 (1.06 mg) was dissolved in dimethyl sulfoxide (DMSO; 1.514 mL) to produce a 1 mM stock solution (0.7 mg/mL). […]
[^14C]Compound 1 concentrations in both donor and receiver sides were analyzed by LSC. The lower limit of quantitation (LLOQ) was determined as 2 times the background (21 dpm).

The mark [4] stands for this setting: single 25 mg SR oral dose, N=12.

Consider `N#CCC1(n2cc(-c3ncnc4[nH]ccc34)cn2)CN(C2CCN(C(=O)c3ccnc(C(F)(F)F)c3F)CC2)C1` [Compound 1, {1-{1-[3-Fluoro-2-(trifluoromethyl)isonicotinoyl]piperidin-4-yl}-3-[4-(7H-pyrrolo[2,3-d]pyrimidin-4-yl)-1H-pyrazol-1-yl]azetidin-3-yl}acetonitrile], for which the IC50 in series [1] stood at 141 nM. Further, the Cmax in series [2] (human, plasma, 100 mg, plasma, single 100 mg dose, separate study, read-out: Cmax, mean (SD)) came to 84.4 nM; in series [2] (human, plasma, po, 25 mg, plasma, single 25 mg SR oral dose, N=12, read-out: Cmax, Geometric Mean) it was 17.2 nM; in series [2] (human, plasma, po, 25 mg, plasma, single 25 mg SR oral dose, N=12, read-out: Cmax, Mean) it was 18.9 nM. For the same molecule, the AUC(0-inf) in series [2] (human, plasma, po, 25 mg, plasma, single 25 mg SR oral dose, N=12, read-out: AUC0-inf, Geometric Mean) is 0.111 µM·h; in series [2] (human, plasma, po, 25 mg, plasma, single 25 mg SR oral dose, N=12, read-out: AUC0-inf, Mean), 0.117 µM·h. For the same molecule, the AUC came to 0.105 µM·h in series [2] (human, plasma, po, 25 mg, plasma, single 25 mg SR oral dose, N=12, read-out: AUCall, Geometric Mean) and 0.11 µM·h in series [2] (human, plasma, po, 25 mg, plasma, single 25 mg SR oral dose, N=12, read-out: AUCall, Mean). For the same molecule, the half-life in series [2] (human, plasma, po, 25 mg, single 25 mg SR oral dose, N=12, read-out: Half-life or t1/2, Geometric Mean (converted)) was 9.04 h; in series [2] (human, plasma, po, 25 mg, single 25 mg SR oral dose, N=12, read-out: Half-life or t1/2, Mean (converted)) it was 12.3 h. Further, the Vd/F in series [2] (human, plasma, po, 25 mg, single 25 mg SR oral dose, N=12, read-out: Vz/F, Geometric Mean) came out at 5290 L; in series [2] (human, plasma, po, 25 mg, single 25 mg SR oral dose, N=12, read-out: Vz/F, Mean) it was 7360 L. In series [2] (human, plasma, single 25 mg SR oral dose, N=12 (min 1, max 4), read-out: Tmax, median), the Tmax is 2 h. Further, the “dose proportionality of PK” value in series [2] (humans) is recorded as “supralinear PK with regard to dose”. The “oral bioavailability in humans” value in series [2] (in vivo, po) is listed as “moderate”. Besides, the “Cl/F, Geometric Mean” value in series [2] (setting [4]) came to 405 L/h. Also, the “Cl/F, Mean” value in series [2] (setting [4]) amounted to 424 L/h. Moreover, the “radioactivity / concentration in basolateral side (receiver compartment)” value in series [3] is “no Compound 1 related radioactivity was detected from the receiver side”.
